Measured values reported in US11389395B2, “Encapsulation of microbubbles within the aqueous core of microcapsules” (DREXEL UNIVERSITY, priority 2009, dated 2022).

Legend:
[1] = Survival of microbubbles made at different processing temperatures; assay type: physicochemical; conditions: formulations included 5 mol % PEG6000MS; for survival of microbubbles, 7° C.: processing temperature 7° C.; for survival of microbubbles, 37° C.: processing temperature 37° C.; for survival of microbubbles, 60° C.: processing temperature 60° C.
Excerpt: Table 1 lists three phospholipid species, along with their gel transition temperatures, and the results of experiments attempting to make stable microbubbles with these species at different temperatures. All microbubble formulations included 5 mol % PEG6000MS.
In all cases in which the processing temperature was below the gel transition temperature, irrespective of the phospholipid identity, microbubble synthesis was feasible. Conversely, microbubble synthesis at temperatures greater than the gel transition temperature was not feasible, regardless of which phospholipid was used.

[2] = Microbubble growth on heating above the phospholipid chain melting temperature; assay type: physicochemical; conditions: microbubbles made at 7° C., heated to 37° C.
Excerpt: Use of a gel-phase lipid is required to prevent gas from escaping the microbubble. […] Indeed, these microbubbles expanded so as to fill the capillary in which they were contained and therefore became nonspherical, taking on the geometry of the capillary itself. […] Such growth may have resulted from simple expansion of individual microbubbles or by inward diffusion of gas.

Row | SMILES | survival of microbubbles, 7° C. [1] | survival of microbubbles, 37° C. [1] | survival of microbubbles, 60° C. [1] | microbubble growth upon heating [2]
1 | CCCCCCCCCCCCCC(=O)OC[C@H](COP(=O)([O-])OCC[N+](C)(C)C)OC(=O)CCCCCCCCCCCCC [DMPC, dimyristoylphosphatidylcholine] | Yes | No | No | grew spontaneously
2 | CCCCCCCCCCCCCCCCCC(=O)OC[C@H](COP(=O)([O-])OCC[N+](C)(C)C)OC(=O)CCCCCCCCCCCCCCCCC [DSPC, 1,2-distearoyl-sn-glycero-3-phosphocholine] | Yes | Yes | No | No such growth was observed
